11 molecules from BindingDB's records for doi:10.1016/s0960-894x(01)00635-7 (Instituto De Química Médica (Csic), 2001) can be followed below.

The first experiment in a line: The compound was evaluated for inhibition of HIV-1 mutant […] recombinant reverse transcriptase.
As for `Cc1cn([C@@H]2O[C@H](CO[Si](C)(C)C(C)(C)C)[C@@H](O)[C@H]2O[Si](C)(C)C(C)(C)C)c(=O)n(CC(=O)O)c1=O`, the 50% effective concentration (EC50) amounted to 4.5 µM.

`Cc1cn([C@@H]2O[C@H](CO[Si](C)(C)C(C)(C)C)[C@@H](O[Si](C)(C)C(C)(C)C)[C@H]2O[Si](C)(C)C(C)(C)C)c(=O)n(CC(=O)OCc2ccccc2)c1=O`: the concentration giving a half-maximal response (EC50) is > 10 µM.

Consider `Cc1cn([C@@H]2O[C@H](CO[Si](C)(C)C(C)(C)C)[C@@H](O[Si](C)(C)C(C)(C)C)[C@H]2O[Si](C)(C)C(C)(C)C)c(=O)n(CC(=O)O)c1=O`, for which the concentration giving a half-maximal response (EC50) is 32 µM.

`Cc1cn([C@H]2C[C@H](O[Si](C)(C)C(C)(C)C)[C@@H](CO[Si](C)(C)C(C)(C)C)O2)c(=O)n(CC(=O)O)c1=O`: the concentration giving a half-maximal response (EC50) came out at 5 µM.

In the case of `Cc1cn([C@@H]2O[C@H](CO)[C@@H](O)[C@H]2O[Si](C)(C)C(C)(C)C)c(=O)n(CC(=O)O)c1=O`, the EC50 stood at 20 µM.

`Cc1cn(C2CCC(CO[Si](C)(C)C(C)(C)C)O2)c(=O)n(CC(=O)OCc2ccccc2)c1=O` (stereo unspecified): the EC50 is > 250 µM.

Consider `Cc1cn([C@@H]2O[C@H](CO[Si](C)(C)C(C)(C)C)[C@@H](O[Si](C)(C)C(C)(C)C)[C@H]2O)c(=O)n(CC(=O)OCc2ccccc2)c1=O`, for which the EC50 is > 50 µM.

For the molecule `Cc1cn([C@@H]2O[C@H](CO)[C@@H](O)[C@H]2O[Si](C)(C)C(C)(C)C)c(=O)n(CC(=O)OCc2ccccc2)c1=O`, the EC50 is 4 µM.

Consider `Cc1cn(C2O[C@H](CO[Si](C)(C)C(C)(C)C)[C@@H](O)[C@H]2O)c(=O)n(CC(=O)O)c1=O` (stereo partly specified), for which the EC50 worked out at 117 µM.

On to `Cc1cn(C2OC(CO[Si](C)(C)C(C)(C)C)CC2O[Si](C)(C)C(C)(C)C)c(=O)n(CC(=O)O)c1=O` (stereo unspecified) [{3-[3-(tert-Butyl-dimethyl-silanyloxy)-5-(tert-butyl-dimethyl-silanyloxymethyl)-tetrahydro-furan-2-yl]-5-methyl-2,6-dioxo-3,6-dihydro-2H-pyrimidin-1-yl}-acetic acid], for which the concentration for a half-maximal effect (EC50) turned out to be 4.5 µM.

The nature of another experiment: Effective concentration required to inhibit HIV-1 induced cytopathicity by 50% in CEM cells.
For the molecule `Cc1cn([C@@H]2O[C@H](CO[Si](C)(C)C(C)(C)C)[C@@H](O[Si](C)(C)C(C)(C)C)[C@H]2O)c(=O)n(CC(=O)O)c1=O` [{3-[4-(tert-Butyl-dimethyl-silanyloxy)-5-(tert-butyl-dimethyl-silanyloxymethyl)-3-hydroxy-tetrahydro-furan-2-yl]-5-methyl-2,6-dioxo-3,6-dihydro-2H-pyrimidin-1-yl}-acetic acid], the EC50 is 1.8 µM.

As usually defined, the EC50 is the concentration giving half of the maximal effect.
